# Experimental data published in patent US20140093592A1, “[…] THE TREATMENT OF TREATMENT-[…] TREATMENT-RESISTANT DEPRESSION” (Janssen Pharmaceutica NV, priority 2012, published 2014).
# Key:
# [1] = system: adult subjects with treatment-resistant depression (TRD); test: Brief Psychiatric Rating Scale (BPRS) total score, same clinical study; details: 0.40 mg/kg
# [2] = system: adult subjects with treatment-resistant depression (TRD); test: Clinician-Assessed Dissociative Symptom Scale (CADSS) total score, same clinical study
# [3] = system: patients with major depressive disorders; details: cited from earlier work
# [4] = 0.20 mg/kg, Day 1 (4 Hour), baseline Day 1
# [5] = 0.20 mg/kg, Day 1 (40 Min), baseline Day 1
# [6] = 0.20 mg/kg, Day 2, baseline Day 1
# [7] = 0.20 mg/kg, Day 4 (4 Hour), baseline Day 4
# [8] = 0.20 mg/kg, Day 4 (40 Min), baseline Day 4
# [9] = 0.20 mg/kg, Day 5, baseline Day 4
# [10] = 0.40 mg/kg, Day 1 (4 Hour), baseline Day 1
# [11] = 0.40 mg/kg, Day 1 (40 Min), baseline Day 1
# [12] = 0.40 mg/kg, Day 2, baseline Day 1
# [13] = 0.40 mg/kg, Day 4 (4 Hour), baseline Day 4
# [14] = 0.40 mg/kg, Day 4 (40 Min), baseline Day 4
# [15] = 0.40 mg/kg, Day 5, baseline Day 4
smiles,measurement,setting,value
"CN[C@]1(c2ccccc2Cl)CCCCC1=O.Cl [Esketamine, (S)-2-(2-chlorophenyl)-2-(methylamino)cyclohexanone hydrochloride]","BPRS total score, Mean (SE)",[1]; Day 1 (4 Hour),0.00 (0.000)
same,"BPRS total score, Mean (SE)",[1]; Day 1 (15 Min.),1.91 (0.625)
same,"BPRS total score, Mean (SE)",[1]; Day 1 (30 Min.),3.10 (0.960)
same,"BPRS total score, Mean (SE)",[1]; Day 1 (40 Min.),4.33 (1.323)
same,"BPRS total score, Mean (SE)",[1]; Day 1 (Predose),0.09 (0.091)
same,"BPRS total score, Mean (SE)",[1]; Day 2,0.00 (0.000)
same,"BPRS total score, Mean (SE)",[1]; Day 4 (2 Hour),0.43 (0.335)
same,"BPRS total score, Mean (SE)",[1]; Day 4 (4 Hour),0.29 (0.286)
same,"BPRS total score, Mean (SE)",[1]; Day 4 (15 Min.),1.90 (0.668)
same,"BPRS total score, Mean (SE)",[1]; Day 4 (30 Min.),3.32 (1.192)
same,"BPRS total score, Mean (SE)",[1]; Day 4 (40 Min.),3.16 (1.248)
same,"BPRS total score, Mean (SE)",[1]; Day 4 (Predose),0.05 (0.048)
same,"BPRS total score, Mean (SE)",[1]; Day 5,0.00 (0.000)
same,"CADSS total score, Mean (SD)","[2]; 0.20 mg/kg, Day 1 (4 Hour)",0.00 (0.000)
same,"CADSS total score, Median","[2]; 0.20 mg/kg, Day 1 (4 Hour)",0.00
same,"CADSS total score change from baseline, Mean (SD)",[2]; [4],0.00 (0.000)
same,"CADSS total score change from baseline, Median",[2]; [4],0.00
same,"CADSS total score, Mean (SD)","[2]; 0.20 mg/kg, Day 1 (40 Min)",15.56 (24.653)
same,"CADSS total score, Median","[2]; 0.20 mg/kg, Day 1 (40 Min)",4.00
same,"CADSS total score change from baseline, Mean (SD)",[2]; [5],15.56 (24.653)
same,"CADSS total score change from baseline, Median",[2]; [5],4.00
same,"CADSS total score, Mean (SD)","[2]; 0.20 mg/kg, Day 1 (Predose)",0.00 (0.000)
same,"CADSS total score, Median","[2]; 0.20 mg/kg, Day 1 (Predose)",0.00
same,"CADSS total score, Mean (SD)","[2]; 0.20 mg/kg, Day 2",0.22 (0.667)
same,"CADSS total score, Median","[2]; 0.20 mg/kg, Day 2",0.00
same,"CADSS total score change from baseline, Mean (SD)",[2]; [6],0.22 (0.667)
same,"CADSS total score change from baseline, Median",[2]; [6],0.00
same,"CADSS total score, Mean (SD)","[2]; 0.20 mg/kg, Day 4 (4 Hour)",0.22 (0.667)
same,"CADSS total score, Median","[2]; 0.20 mg/kg, Day 4 (4 Hour)",0.00
same,"CADSS total score change from baseline, Mean (SD)",[2]; [7],0.22 (0.667)
same,"CADSS total score change from baseline, Median",[2]; [7],0.00
same,"CADSS total score, Mean (SD)","[2]; 0.20 mg/kg, Day 4 (40 Min)",6.38 (7.963)
same,"CADSS total score, Median","[2]; 0.20 mg/kg, Day 4 (40 Min)",4.00
same,"CADSS total score change from baseline, Mean (SD)",[2]; [8],6.38 (7.963)
same,"CADSS total score change from baseline, Median",[2]; [8],4.00
same,"CADSS total score, Mean (SD)","[2]; 0.20 mg/kg, Day 4 (Predose)",0.00 (0.000)
same,"CADSS total score, Median","[2]; 0.20 mg/kg, Day 4 (Predose)",0.00
same,"CADSS total score, Mean (SD)","[2]; 0.20 mg/kg, Day 5",0.11 (0.333)
same,"CADSS total score, Median","[2]; 0.20 mg/kg, Day 5",0.00
same,"CADSS total score change from baseline, Mean (SD)",[2]; [9],0.11 (0.333)
same,"CADSS total score change from baseline, Median",[2]; [9],0.00
same,"CADSS total score, Mean (SD)","[2]; 0.40 mg/kg, Day 1 (4 Hour)",0.36 (1.206)
same,"CADSS total score, Median","[2]; 0.40 mg/kg, Day 1 (4 Hour)",0.00
same,"CADSS total score change from baseline, Mean (SD)",[2]; [10],−0.55 (1.036)
same,"CADSS total score change from baseline, Median",[2]; [10],0.00
same,"CADSS total score, Mean (SD)","[2]; 0.40 mg/kg, Day 1 (40 Min)",22.00 (9.192)
same,"CADSS total score, Median","[2]; 0.40 mg/kg, Day 1 (40 Min)",23.00
same,"CADSS total score change from baseline, Mean (SD)",[2]; [11],21.56 (9.645)
same,"CADSS total score change from baseline, Median",[2]; [11],23.00
same,"CADSS total score, Mean (SD)","[2]; 0.40 mg/kg, Day 1 (Predose)",0.91 (1.921)
same,"CADSS total score, Median","[2]; 0.40 mg/kg, Day 1 (Predose)",0.00
same,"CADSS total score, Mean (SD)","[2]; 0.40 mg/kg, Day 2",0.73 (1.849)
same,"CADSS total score, Median","[2]; 0.40 mg/kg, Day 2",0.00
same,"CADSS total score change from baseline, Mean (SD)",[2]; [12],−0.18 (1.168)
same,"CADSS total score change from baseline, Median",[2]; [12],0.00
same,"CADSS total score, Mean (SD)","[2]; 0.40 mg/kg, Day 4 (4 Hour)",3.21 (8.929)
same,"CADSS total score, Median","[2]; 0.40 mg/kg, Day 4 (4 Hour)",0.00
same,"CADSS total score change from baseline, Mean (SD)",[2]; [13],3.16 (8.808)
same,"CADSS total score change from baseline, Median",[2]; [13],0.00
same,"CADSS total score, Mean (SD)","[2]; 0.40 mg/kg, Day 4 (40 Min)",15.67 (13.932)
same,"CADSS total score, Median","[2]; 0.40 mg/kg, Day 4 (40 Min)",10.00
same,"CADSS total score change from baseline, Mean (SD)",[2]; [14],15.67 (13.932)
same,"CADSS total score change from baseline, Median",[2]; [14],10.00
same,"CADSS total score, Mean (SD)","[2]; 0.40 mg/kg, Day 4 (Predose)",0.19 (0.680)
same,"CADSS total score, Median","[2]; 0.40 mg/kg, Day 4 (Predose)",0.00
same,"CADSS total score, Mean (SD)","[2]; 0.40 mg/kg, Day 5",0.25 (0.550)
same,"CADSS total score, Median","[2]; 0.40 mg/kg, Day 5",0.00
same,"CADSS total score change from baseline, Mean (SD)",[2]; [15],0.05 (0.759)
same,"CADSS total score change from baseline, Median",[2]; [15],0.00
same,Time at which maximum mean overall BPRS and CADSS scores (CNS side effects) were observed,[2]; corresponding to the end of the infusion,40 min
same,Time point at which BPRS and CADSS scores returned back to baseline values,"[2]; postdose, after the start of infusion",4 h
CNC1(c2ccccc2Cl)CCCCC1=O (racemic) [ketamine],Onset of rapid antidepressant effect,[3],within two hours
